# Source: patent US20260028342A1, “ENHANCING ANTIMETASTASIS ACTIVITY USING TARGETED PROTEIN DEGRADATION” (THE UNIVERSITY OF NORTH CAROLINA AT CHAPEL HILL, priority 2022, published 2026)
# Entries after “also recorded” stand apart in the source; their conditions may differ. Where two headings read alike, the source gives them in different places.
# Assays:
# eEF1A2 [1] = target: T1, eEF1A2 (Homo sapiens, UniProt Q05639); experiment: Western blot analysis of eEF1A2 protein levels; format: cell-based; set-up: dose or concentration left out as unconfirmed; settings: actin loading control, vehicle as standard of one; preliminary
# T1 construct: Compound 49 treatment for 20 hours reduced eEF1A2 by Western blot analysis; endogenous in cells
# T1 sequence (Q05639 1-463): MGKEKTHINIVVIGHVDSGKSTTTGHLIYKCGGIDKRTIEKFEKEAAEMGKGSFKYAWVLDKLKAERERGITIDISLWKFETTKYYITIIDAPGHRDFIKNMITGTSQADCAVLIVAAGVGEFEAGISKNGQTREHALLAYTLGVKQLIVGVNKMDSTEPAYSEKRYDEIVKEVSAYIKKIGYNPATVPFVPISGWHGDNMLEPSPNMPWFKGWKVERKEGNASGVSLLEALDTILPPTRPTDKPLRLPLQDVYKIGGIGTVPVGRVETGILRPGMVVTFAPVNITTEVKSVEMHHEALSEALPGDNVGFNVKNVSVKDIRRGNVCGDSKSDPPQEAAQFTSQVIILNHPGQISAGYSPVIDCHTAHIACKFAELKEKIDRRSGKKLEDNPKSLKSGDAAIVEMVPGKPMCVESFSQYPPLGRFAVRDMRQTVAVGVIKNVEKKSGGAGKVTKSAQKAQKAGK
# Description: FIGS. 6A and 6B show results from metarrestin-PROTAC studies.
# PNC in HeLa cancer cells = experiment: PNC inhibition: IC50 inhibiting PNC in cancer cells (HeLa); format: cell-based; settings: for IC50: Homo sapiens, HeLa cancer cells, inhibiting PNC; for fold more potent than metarrestin: PNC inhibition, versus metarrestin; for IC50 nucleoli.normal/IC50 PNC.cancer: ratio RPE1 nucleoli IC50 to HeLa PNC IC50
# Description: PNC inhibitory activity was determined using fluorescent imaging techniques known in the art, such as: a CellTiter-Glo® luminescence assay from Promega to determine cell viability and/or fluorescent imaging studies with an IN Cell Analyzer 1000 automated system in combination with a green fluorescent protein (GFP) tagged PNC localized complex.
# [2] = tested on: nucleoli in RPE1 normal cells; experiment: IC50 disrupting nucleoli in normal cells (RPE1); format: cell-based; settings: Homo sapiens, RPE-1
# eEF1A2 [3] = target: T1, eEF1A2; settings: similar treatment conditions, reference [5]; cited from earlier work
# eEF1A2 [4] = target: T1, eEF1A2; experiment: Competition with anchored biotinylated metarrestin-eEF1A2 complex; format: binding; settings: FIG. 3A
# Description: (§1) FIGS. 3A-3E show metarrestin binding and cellular data. FIG. 3A presents data showing that metarrestin specifically binds eEF1A2, and increased eEF1A2 enhances PNCs and metastasis formation. […] Mice from both groups were harvested six weeks after implantation and subjected to necropsy. […] Histopathological images (H&E) of livers (black scale bar=250 μm, white scale bar=100 μm) are shown on the right. Insets depict representative metastatic lesions.
# (§2) With respect to the metarrestin target eEF1A2, the biased expression of eEF1A2 in cancer cells over normal adult cells (except neuronal cells) was used to selectively target cancer cells. […] Increased eEF1A2 enhances PNC number per cell (FIG. 3C) and metastasis formation (FIG. 3E). […] Expression of eEF1A2 is associated with cancer metastasis and correlates with poor patient outcomes.
# PANC1 [5] = experiment: Orthotopic mouse model with 3-D cultured PANC1 cells (metastasis); format: in vivo
# Description: (§3) FIGS. 2A-2F show metarrestin and various studies.
# (§4) Using a high-content screen to measure reduction of PNC prevalence, noncytotoxic PNC inhibitor hit compounds were discovered such as metarrestin, (FIG. 2A). […] Metarrestin was further evaluated in xenograft models of PC3M (metastatic prostate cancer cell line) and in a breast cancer patient-derived xenograft (PDX, harvested from a lung metastasis site). […] When the survival of the PANC1 tumor-bearing animals was evaluated, two sets of experiments were performed to determine efficacy at two treatment starting points, either after (eight weeks post-inoculation) or prior to (four weeks post-inoculation) macrometastasis had been established.
# [6] = reference [29], cited from earlier work
# [7] = tested on: breast cancer patient-derived xenograft; settings: PDX harvested from a lung metastasis site, reference [5]; cited from earlier work
# migration and invasion = settings: reference [5]; cited from earlier work
# [8] = daily treatment for up to three months, animals, reference [5]; cited from earlier work
# PANC1 [9] = experiment: Survival of PANC1 tumor-bearing animals; format: in vivo, mouse; settings: for animal survival, treatment started post-macrometastasis formation / animal survival, treatment started prior to macrometastasis formation: food pellets, 10 mg/kg daily; for animal survival, treatment started post-macrometastasis formation: start eight weeks post-inoculation, FIG. 2F; for animal survival, treatment started prior to macrometastasis formation: start four weeks post-inoculation, FIG. 2E; for organ tumor replacement at autopsy (liver, lung, pancreas): treatment after macrometastasis, versus regular food pellets, FIG. 2G
# Description: as §3, §4
# PNC in PC3M cells = experiment: PNC disassembly in PC3M cells with eEF1A2 overexpression; format: cell-based; settings: FIG. 3D
# Description: as §1, §2
# [10] = tested on: PC3M (metastatic prostate cancer cell line); settings: PC3M xenograft, reference [5]; cited from earlier work
# [11] = Large mammal dose-escalation studies; format: in vivo; settings: overloading dosing
# Description: Thus, the potential for dose-limiting neurological side effects could constrain the patient population to drug-resistant or late-stage individuals. However, cancer patient outcomes would generally greatly benefit from adjuvant or co-administration use of an anti-metastasis agent such as metarrestin at any stage of cancer. Therefore, in order to improve the cancer cell selectivity and reduce potential toxicity to normal cells, development of next generation metarrestin derivatives that selectively enhance drug efficacy against cancer cells over normal cells were needed.
# eEF1A2 [12] = target: T1, eEF1A2; experiment: Thermal stability assay using PC3M cell lysate; format: binding; settings: FIG. 3B
# Description: as §1, §2
# [13] = tested on: PNC prevalence in HeLA cells; experiment: Percentage of HeLa cells with PNCs after treatment (FIG. 7); format: cell-based
# Description: PNC prevalence is correlated with metastatic potential and can be disrupted through modulation of the elongation factor eEF1A.
smiles,measurement,setting,value
O=C1CCC(N2C(=O)c3cccc(NCCCCCNC(=O)c4ccc(Cn5c(-c6ccccc6)c(-c6ccccc6)c6c(NC7CCC(O)CC7)ncnc65)cc4)c3C2=O)C(=O)N1 (stereo not shown) [Compound 49],eEF1A2 protein levels by Western blot,eEF1A2 [1],significantly reduced; also recorded: significant reduction
same,IC50,PNC in HeLa cancer cells,0.025 µM
same,fold more potent than metarrestin,PNC in HeLa cancer cells,14 fold
same,IC50 nucleoli.normal/IC50 PNC.cancer,PNC in HeLa cancer cells,4
same,IC50,[2],0.1 µM
N=c1c2c(-c3ccccc3)c(-c3ccccc3)n(Cc3cccc(CNC(=O)CCCCCNc4cccc5c4C(=O)N(C4CCC(=O)NC4=O)C5=O)c3)c2ncn1C1CCC(O)CC1 (stereo not shown) [Compound 46],IC50,PNC in HeLa cancer cells,0.11 µM
same,fold more potent than metarrestin,PNC in HeLa cancer cells,threefold
same,IC50 nucleoli.normal/IC50 PNC.cancer,PNC in HeLa cancer cells,4.27
same,IC50,[2],0.47 µM
N=c1c2c(-c3ccccc3)c(-c3ccccc3)n(Cc3ccccc3)c2ncn1[C@H]1CC[C@H](O)CC1 [Metarrestin],eEF1A2 protein levels,eEF1A2 [3],does not reduce the protein levels
same,competition of recombinant eEF1A2 binding to anchored biotinylated metarrestin,eEF1A2 [4],effectively outcompeted
same,metastasis as organ/tumor ratio in liver and lung,"PANC1 [5]; 5 mg/kg and 25 mg/kg, FIG. 2B",inhibits metastasis
same,metastatic burden in lung and liver,PANC1 [5]; 25 mg/kg IP daily for four weeks,significantly reduced the metastatic burden
same,primary tumor growth,"PANC1 [5]; 25 mg/kg IP daily for four weeks, data not shown",only modest reduction
same,metastasis as metastatic deposits in liver and lung,"PANC1 [5]; 25 mg/kg, FIG. 2C",inhibits metastasis
same,half-life,[6]; allows once-a-day dosing,long
same,tissue distribution,[6],good
same,IC50,PNC in HeLa cancer cells,0.36 µM
same,IC50 nucleoli.normal/IC50 PNC.cancer,PNC in HeLa cancer cells,6.25
same,metastatic tumor growth,[7],metastatic tumor growth inhibition
same,in vitro anti-oncogenic properties,migration and invasion,migration and invasion inhibition
same,adverse effects,[8],does not induce discernable adverse effects
same,"animal survival, treatment started post-macrometastasis formation",PANC1 [9]; 10 mg/kg,significantly improved animal survival
same,"animal survival, treatment started post-macrometastasis formation","PANC1 [9]; listed as metarrestin, 10 mg/kg",effective at extending survival
same,"animal survival, treatment started prior to macrometastasis formation",PANC1 [9],drastic animal survival advantages
same,"animal survival, treatment started prior to macrometastasis formation",PANC1 [9]; 10 mg/kg,completely prevented metastasis-induced death
same,"organ tumor replacement at autopsy (liver, lung, pancreas)",PANC1 [9],did not show significant tumor replacement
same,"organ tumor replacement at autopsy (liver, lung, pancreas)",PANC1 [9]; listed as metarrestin,less tumors were present
same,change of IC50 for PNC disassembly on eEF1A2 overexpression,PNC in PC3M cells,increased the IC50
same,organ metastasis,[10],significant inhibition of organ metastasis
same,seizures,[11],reversible seizures
same,IC50,[2],2.5 µM
same,thermal stabilization of eEF1A2,eEF1A2 [12],stabilized eEF1A; also recorded: stabilized eEF1A2
N=c1c2c(-c3ccccc3)c(-c3ccccc3)n(Cc3ccccc3)c2ncn1[C@H]1CC[C@H](OC(=O)CCCNc2cccc3c2C(=O)N(C2CCC(=O)NC2=O)C3=O)CC1 (stereo partly shown) [Compound 56],PNC prevalence (percentage of cells with PNCs),[13],almost complete disruption of PNC prevalence
same,PNC prevalence (percentage of cells with PNCs),[13]; 0.1 μM,measureable reduction in PNC prevalence
N=c1c2c(-c3ccccc3)c(-c3ccccc3)n(Cc3ccccc3)c2ncn1[C@H]1CC[C@H](OC(=O)CCOCCOCCOCCNc2cccc3c2C(=O)N(C2CCC(=O)NC2=O)C3=O)CC1 (stereo partly shown) [Compound 57],PNC prevalence (percentage of cells with PNCs),[13],almost complete disruption of PNC prevalence
same,PNC prevalence (percentage of cells with PNCs),[13]; 0.1 μM,measureable reduction in PNC prevalence
